Reference: patent publication US9173935B2, “Phospholipid drug analogs” (Telormedix SA, priority 2010, dated 2015)

Columns and labels:
RAW.264 cells = assay: Intracellular uptake in RAW.264 cells (LC-MS); format: cell-based; conditions: 10 microM
Experimental: 5×10^6 RAW.264 cells were adhered overnight in 10 cm tissue culture dishes. […] […] Supernatant (2 ml) and cells (pellets) were collected by trypsinization and frozen at […] for subsequent analysis by LC-MS.

[1] = tested on: Cutaneous Squamous Cell Carcinoma cell lines SCL-I, SCL-II, SCC-12, SCC-13; assay: Direct proapoptotic and cytotoxic effects on SCC cells (real-time cell analysis, microscopy); format: cell-based, human
Experimental: SCC cells are grown under standard conditions (10% FBS).
Time and dose dependency of effects on total cell numbers have been investigated by real-time cell analysis, which is based on continuous monitoring of electric conductance in microtiter wells (E-plates, Roche), which corresponds to the cell numbers. […] For these assays 4 cell lines should be used to obtain a representative overview on the effects on SCC cells.

[2] = tested on: receptors associated with pain-related syndromes (e.g. adenosine and sodium channel); assay: Radioligand binding assay among 73 primary molecular targets; conditions: SC12 at fixed concentration of 30 microM
[3] = tested on: recombinant protein antigens from Plasmodium falciparum and Mycobacterium ulcerans; assay: Pilot immunization study with adjuvanted protein antigens; format: in vivo, mice; conditions: three s.c. immunizations
Experimental: A pilot immunization study was conducted using Compound A and SC12 adjuvanted protein antigens. The immunization experiments were performed with two recombinant proteins expressed in E. coli. One antigen was derived from the malaria parasite Plasmodium falciparum and the other one from Mycobacterium ulcerans, which cause the ulcerative skin disease Buruli ulcer.

[4] = tested on: HLA-DR+/CD11c+/CD123- mDCs; assay: FACS analysis of myeloid DC activation in whole blood; format: cell-based, human; conditions: 24 hours, 0.1 and 0.5 uM, three donors
Experimental: (§1) A flow cytometric analysis was performed on whole blood from three donors after treatment with two compound concentrations for 24 h. The FACS analysis for donor 1 and donor 2 was made on another day than donor 3. The compound concentrations were as follows:
(§2) The FACS analysis was used to identify whether the test compounds could induce activation of B cells, and two different subsets of dendritic cells, namely the myeloid CD11c+/CD123− DCs and the plasmacytoid CD11c−/CD123+ DCs. The following markers were studied to identify the activation status of the different subsets:
(§3) The FACS staining was performed according to the manufacturer's instructions. Lysis of red blood cells was performed before FACS staining in order to minimize auto-florescence. To include as many B cells and DCs in the study as possible the FACS analyses were performed on 500,000 cells in total for each staining. A P1 gate was set only to include relevant cells on FSC vs. SSC (see FIGS. 12-15). The results of the individual analysis were present as Mean Fluorescence Intensity
The analysis of myeloid DCs was based on HLA-DR+/CD11c+/CD123-cells, thus all analyzed cells was included in the HLA-DR+ (P3) gate and CD11c+/CD123− (Q4) gate (see gates in FIGS. 13-15).

[5] = tested on: AY-27 rat bladder cancer cell-line
[6] = Storage stability by HPLC (solid or chloroform solution; temperature, light); format: physicochemical
Experimental: At this point, a stability study was conducted on batch CH730/16/8g.
The samples were analyzed at t=0 and after 20 days.

[7] = tested on: HLA-DR+/CD11c-/CD123+ pDCs; assay: FACS analysis of plasmacytoid DC activation in whole blood; format: cell-based, human; conditions: 24 hours, 0.1 and 0.5 uM, three donors
Experimental: as §1, §2, §3
The analysis of pDCs was based on HLA-DR+/CD11c−/CD123+ cells, thus all analyzed cells were included in the HLA-DR+ (P3) gate and CD11c−/CD123+(Q1) gate. (FIGS. 13-15).

[8] = tested on: Escherichia coli WP2 uvrA; assay: Bacterial mutation assay, Escherichia coli; conditions: absence or presence of S9 metabolism
Experimental: The five tester strains TA1535, TA1537, TA98, TA100 and WP2 uvrA were used. Experiments were performed both in the absence and presence of metabolic activation, using liver S9 fraction from rats pre-treated with phenobarbitone and betanaphthoflavone. SC12 was used as a solution in dimethylsulfoxide (DMSO).

[9] = Plasma stability, second experiment, human plasma; conditions: human plasma, second experiment
Experimental: Second experiment: Test compounds (5 mM in DMSO) were diluted at the final concentration of 250 μM with ACN-MeOH 1:1.
Human plasma (1.180 ml) was spiked with 20 μl of 250 μM solution of the compound (4.16 μM final concentration) and aliquots of 50 μl volume were taken at 0, 15, 30, 60, 120 min and 5 hrs, and immediately quenched with 200 μl of a solution of Verapamil 250 ng/ml (internal standard, I.S.) in ACN:MeOH 95:5. Samples were then centrifuged for 20 min at 3000 rpm at 10° C. and analyzed as reported below. […] The supernatant fractions were analyzed by LC/MS/MS. Zero-time incubations were used as 100% values.
Stability was calculated as percentage remaining of the area ratio compound/I.S. at each time point vs. area ratio compound/I.S. at time 0 min.

[10] = tested on: AY-27 rat bladder cancer cell-line; conditions: in vivo
CYP2D6 = CYP2D6 (Homo sapiens (Human), UniProt P10635); assay: Fluorescent High Throughput P450 assay, CYP2D6; format: biochemical; conditions: substrate AMMC; read-out: CYP2D6 IC50 (Mean ± S.D.)
Experimental: Inhibition of the P450 isoforms was measured in specific assays using specific substrates that become fluorescent upon CYP metabolism. Compounds, dissolved in ACN (acetonitrile) (CYP2E1, CYP2C8, CYP2B6, CYP3A5) or DMSO (all remaining isoforms), were tested in duplicate (n=2) in concentration-response curves (eight concentrations) in a 96-well plate containing incubation/NADPH regenerating buffer. Specific isoenzymes and substrates were added and incubated at 37° C. Reactions were terminated at different times, depending on the assays, and plates read on a Fluoroskan Ascent at the appropriate emission/excitation wavelengths. Concentration-response curves performed in duplicate for known inhibitors for each isoenzyme were tested in every assay as positive control.

[11] = day 12, group 1 Imiquimod 0.1%, group 2 SC12 0.38%

Chain of CYP2D6 (P10635 whole entry, looked up): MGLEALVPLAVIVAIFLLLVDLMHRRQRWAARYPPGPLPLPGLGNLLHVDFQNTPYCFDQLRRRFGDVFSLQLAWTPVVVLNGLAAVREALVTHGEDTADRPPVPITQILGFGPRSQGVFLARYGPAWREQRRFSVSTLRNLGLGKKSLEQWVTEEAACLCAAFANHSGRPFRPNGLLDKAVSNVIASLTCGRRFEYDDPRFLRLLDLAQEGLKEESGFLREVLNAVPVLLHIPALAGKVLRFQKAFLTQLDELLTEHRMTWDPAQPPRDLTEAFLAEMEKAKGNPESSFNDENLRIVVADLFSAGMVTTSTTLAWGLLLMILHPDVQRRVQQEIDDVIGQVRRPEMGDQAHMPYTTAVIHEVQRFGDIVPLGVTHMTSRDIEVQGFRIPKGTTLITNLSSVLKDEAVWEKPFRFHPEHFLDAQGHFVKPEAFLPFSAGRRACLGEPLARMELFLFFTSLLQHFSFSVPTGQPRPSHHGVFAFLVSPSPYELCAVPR

SMILES: CCCCCCCCCCCC(=O)OCC(COP(=O)(O)OCCNC(=O)c1ccc(Cn2c(=O)[nH]c3c(N)nc(OCCOC)nc32)cc1)OC(=O)CCCCCCCCCCC (stereo not shown) [SC12]
- Intracellular Concentration (RAW.264 cells; incubation 1 hours): 18.5 % of total
- Intracellular Concentration (RAW.264 cells; incubation 6 hours): 20.6 % of total
- Intracellular Concentration (RAW.264 cells; incubation 18 hours): 21.4 % of total
- Cell numbers (electric conductance, real-time cell analysis) ([1]; 4 cutaneous SCC cell lines, versus untreated control): reduced cell numbers
- Morphology and proliferation (microscopy) ([1]; day 3, 120 microM): cell detachment, morphological changes and inhibition of proliferation
- Binding to receptors associated with pain-related syndromes [2]: did not bind
- Local side effects (swelling, ulcerations) ([3]; 10 nMol adjuvant): No local side effects
- IgG responses against target antigens ([3]; 20 micrograms antigen with 10 nMol adjuvant): all 20 immunized mice had developed IgG responses
- CCR7 expression on mDCs [4]: less potent stimulator of CCR7 expression
- CD80 expression on mDCs [4]: induced a noteworthy CD80 expression in all three donors
- CD86 expression on mDCs [4]: induces a weak CD86 expression in donor 2 and 3, but not in donor 1
- Number of rats with a tumor positive bladder ([5]; day 12): 8 of 14
- Rats with pT2 Tumor, number (% of 14) [5, 11]: 7 (50.0%)
- Tumor free rats, number (% of 14) [5, 11]: 6 (42.9%)
- Rats with pTa Tumor, number (% of 14) ([5]; day 12, group 2 SC12 0.38%): 1 (7.1%)
- Mean weight of the rat bladders ([5]; day 12, intravesical 0.5 ml on day 2 and 5, group 1 Imiquimod 0.1%, group 2 SC12 0.38%): 0.1014 grams
- Mean number of tumors per rat bladder ([5]; group 1 Imiquimod 0.1%, group 2 SC12 0.38%): 1.36
- Mean invasion depth ([5]; tumor positive bladders, group 1 Imiquimod 0.1%, group 2 SC12 0.38%): 1.4250 mm
- HPLC RRT = 1 ([6]; Solid, RT and light, t = 20 days): RRT = 1: 87.8%
- HPLC RRT = 1 ([6]; Solid, external T and light, t = 20 days): RRT = 1: 84.0%
- HPLC RRT = 1 ([6]; Solution in CHCl3, RT and light, t = 20 days): RRT = 1: 88.0%
- HPLC RRT = 1 ([6]; t = 0): RRT = 1: 90.3%
- CD80 expression on pDCs [7]: induces a slightly higher CD80 expression than compound A
- CD86 expression on pDCs [7]: tendency to induce higher CD86 expression than compound A
- Toxicity to tester strains ([8]; 50.0-5000 micrograms/plate): No toxicity was observed
- Reverse mutation ([8]; up to 5000 micrograms/plate): does not induce reverse mutation
- % Remaining ([9]; 0 min): 100%
- % Remaining ([9]; 15 min): 112.6 ± 1.0%
- % Remaining ([9]; 30 min): 110.0 ± 1.0%
- % Remaining ([9]; 60 min): 96.7 ± 6.3%
- % Remaining ([9]; 120 min): 102.1 ± 8.7%
- Plasma stability classification ([9]; up to 120 min): stable
- Signs of toxicity [10]: No signs of toxicity
- IC50 (CYP2D6): 67 ± 3.8 µM
